US7132437B2, “Renal-selective biphenylalkyl 1H-substituted-1,2,4-triazole angiotensin II antagonists for treatment of hypertension” (G.D. Searle, priority 1990, dated 2006)

Tests used:
[1] = system: spontaneously hypertensive rats (SHR); experiment: Assay D: In Vivo Effects of Chronic Infusion of Conjugate (mean arterial pressure, heart rate); set-up: species or system rat
Experimental: Assay D: In Vivo Effects of Chronic Infusion of Conjugate of the Invention
(§1) This in vivo experiment was conducted to characterize the effects of the Example 79 conjugate on spontaneously hypertensive rats (SHR) by acute administration i.v. and by chronic administration i.v. The […] compound or saline vehicle was infused continuously for four days in SHR. Mean arterial pressure was measured (Gould Chart Recorder, model 3800; Statham P23 Db pressure transducer) via an indwelling femoral artery catheter between 10:00 a.m. and 2:00 P.M. each day. The Example 79 conjugate (10 mg/hr) or saline was infused via a jugular vein catheter with a Harvard infusion pump. […] A test was conducted to determine whether the Example 79 conjugate would antagonize non-renal, vascular angiotensin II receptors. In this test AII was administered by bolus injection (100 ng/kg) to the SHR rats (described above) on the control day and on days 1, 3 and 4 during conjugate infusion.

[2] = molecular target: T1, non-renal, vascular angiotensin II receptors (Rattus norvegicus, UniProt P25095); experiment: Assay D: AII pressor response during conjugate infusion (systemic AII antagonism); type: in vivo; conditions: SHR; for AII Pressor Response: 10 mg/hr infusion, AII bolus 100 ng/kg, control day 31 ± 4
T1 construct: from tissue; host or cells: whole animal: spontaneously hypertensive rat (SHR), systemic vasculature
T1 sequence (P25095 1-359): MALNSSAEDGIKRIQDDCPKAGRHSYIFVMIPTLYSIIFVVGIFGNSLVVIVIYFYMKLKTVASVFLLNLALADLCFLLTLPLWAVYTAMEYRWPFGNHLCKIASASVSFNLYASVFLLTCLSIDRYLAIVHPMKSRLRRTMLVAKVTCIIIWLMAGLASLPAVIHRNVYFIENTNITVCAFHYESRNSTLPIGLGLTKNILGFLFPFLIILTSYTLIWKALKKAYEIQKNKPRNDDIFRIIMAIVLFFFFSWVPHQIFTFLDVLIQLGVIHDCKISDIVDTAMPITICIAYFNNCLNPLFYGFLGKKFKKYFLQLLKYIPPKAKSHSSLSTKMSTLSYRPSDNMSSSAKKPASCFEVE
Experimental: as §1

SMILES | mean arterial pressure compared to saline vehicle control ([1]; 10 mg/hr infused for four days) | tachycardia ([1]; day 1 of conjugate infusion) | Heart Rate ([1]; days 2 to 4 of conjugate infusion) | systemic angiotensin II receptor antagonism ([2]; AII bolus 100 ng/kg on control day and days 1, 3 and 4 of infusion) | MAP (mean arterial pressure) ([1]; 10 mg/hr i.v. infusion, day 1, control day 183 ± 5, ± SD) [mm Hg] | Heart Rate ([1]; 10 mg/hr i.v. infusion, day 1, control day 352 ± 9, ± SD) [Beats/min.] | MAP (mean arterial pressure) ([1]; 10 mg/hr i.v. infusion, day 2, control day 183 ± 5) [mm Hg] | Heart Rate ([1]; 10 mg/hr i.v. infusion, day 2, control day 352 ± 9) [Beats/min.] | MAP (mean arterial pressure) ([1]; 10 mg/hr i.v. infusion, day 3, control day 183 ± 5) [mm Hg] | Heart Rate ([1]; 10 mg/hr i.v. infusion, day 3, control day 352 ± 9) [Beats/min.] | MAP (mean arterial pressure) ([1]; 10 mg/hr i.v. infusion, day 4, control day 183 ± 5) [mm Hg] | Heart Rate ([1]; 10 mg/hr i.v. infusion, day 4, control day 352 ± 9) [Beats/min.] | AII Pressor Response ([2]; day 1, ± SD) | AII Pressor Response ([2]; day 3) | AII Pressor Response ([2]; day 4)
CCCCc1nc(CCCC)n(Cc2ccc(-c3ccccc3C(=O)NNC(=O)CCC(NC(C)=O)C(=O)O)cc2)n1 (stereo not drawn) [Example 79 conjugate, N-acetylglutamic acid, 5-[[4′-[(3,5-dibutyl-1H-1,2,4-triazol-1-yl)methyl][1,1′-biphenyl]-2-yl]]carbonylhydrazide] | lowered mean arterial pressure | Tachycardia was observed on day 1 | heart rate was returned to control level during the next three days | No evidence for systemic angiotensin II receptor antagonism was observed |  |  |  |  |  |  |  |  |  |  | 
CCCCc1nc(CCCC)n(Cc2ccc(-c3ccccc3C(=O)NNC(=O)CCC(NC(C)=O)C(=O)O)cc2)n1 (stereo not drawn) [Ex. #18 Conjugate, N-acetylglutamic acid, 5-[[4′-[(3,5-dibutyl-1H-1,2,4-triazol-1-yl)methyl][1,1′-biphenyl]-2-yl]]carbonylhydrazide] |  |  |  |  | 159 ± 7 | 395 ± 21 | 155 ± 4 | 352 ± 12 | 154 ± 6 | 344 ± 22 | 166 ± 9 | 374 ± 20 | 30 ± 6 | 29 ± 5 | 25 ± 3
